These results are taken from ChEMBL document CHEMBL1142908, “Selective L-nitroargininylaminopyrrolidine and L-nitroargininylaminopiperidine neuronal nitric oxide synthase inhibitors” (Bioorg Med Chem, 2007).

The target in one experiment is Nitric oxide synthase 1 (Rattus norvegicus, UniProt P29476). The experiment in a line: Inhibition of rat recombinant nNOS expressed in Escherichia coli assessed as nitric oxide production by hemoglobin capture assay.
The target in experiment [1] is T1, Nitric oxide synthase, inducible (Mus musculus, UniProt P29477).
T1 sequence (P29477 whole entry): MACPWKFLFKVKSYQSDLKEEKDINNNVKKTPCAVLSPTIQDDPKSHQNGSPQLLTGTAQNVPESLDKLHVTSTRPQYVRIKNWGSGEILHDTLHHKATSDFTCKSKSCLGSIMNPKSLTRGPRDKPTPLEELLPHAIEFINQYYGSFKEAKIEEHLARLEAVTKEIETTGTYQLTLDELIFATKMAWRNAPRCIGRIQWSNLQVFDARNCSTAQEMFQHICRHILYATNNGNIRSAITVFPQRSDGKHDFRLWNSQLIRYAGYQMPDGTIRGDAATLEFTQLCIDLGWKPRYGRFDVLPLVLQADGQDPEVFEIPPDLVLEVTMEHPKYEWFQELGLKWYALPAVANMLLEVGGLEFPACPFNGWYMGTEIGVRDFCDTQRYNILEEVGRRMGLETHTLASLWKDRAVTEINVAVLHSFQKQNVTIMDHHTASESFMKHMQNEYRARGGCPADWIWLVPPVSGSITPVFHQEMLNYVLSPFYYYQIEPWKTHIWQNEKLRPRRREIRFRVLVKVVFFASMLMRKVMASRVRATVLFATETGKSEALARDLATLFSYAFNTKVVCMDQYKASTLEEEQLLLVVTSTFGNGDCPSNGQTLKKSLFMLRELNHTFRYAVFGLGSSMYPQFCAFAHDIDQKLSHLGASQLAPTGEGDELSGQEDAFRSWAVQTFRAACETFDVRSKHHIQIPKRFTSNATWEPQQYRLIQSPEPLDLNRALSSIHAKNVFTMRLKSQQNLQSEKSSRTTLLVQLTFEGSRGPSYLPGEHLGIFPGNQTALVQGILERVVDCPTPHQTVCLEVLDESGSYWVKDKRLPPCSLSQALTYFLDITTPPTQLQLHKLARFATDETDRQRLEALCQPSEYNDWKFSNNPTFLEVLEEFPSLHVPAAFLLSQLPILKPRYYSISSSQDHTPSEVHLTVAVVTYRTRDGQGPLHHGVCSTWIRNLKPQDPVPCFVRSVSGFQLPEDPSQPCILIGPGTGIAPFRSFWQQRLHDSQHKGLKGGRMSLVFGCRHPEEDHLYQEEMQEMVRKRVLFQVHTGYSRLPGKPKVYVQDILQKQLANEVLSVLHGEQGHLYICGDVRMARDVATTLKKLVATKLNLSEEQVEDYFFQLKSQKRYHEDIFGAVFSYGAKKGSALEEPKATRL
The experiment in a line: Inhibition of mouse recombinant iNOS expressed in Escherichia coli assessed as nitric oxide production by hemoglobin capture assay.

The next experiment has as its target T2, Nitric oxide synthase 3 (Bos taurus, UniProt P29473).
T2 sequence (P29473 whole entry): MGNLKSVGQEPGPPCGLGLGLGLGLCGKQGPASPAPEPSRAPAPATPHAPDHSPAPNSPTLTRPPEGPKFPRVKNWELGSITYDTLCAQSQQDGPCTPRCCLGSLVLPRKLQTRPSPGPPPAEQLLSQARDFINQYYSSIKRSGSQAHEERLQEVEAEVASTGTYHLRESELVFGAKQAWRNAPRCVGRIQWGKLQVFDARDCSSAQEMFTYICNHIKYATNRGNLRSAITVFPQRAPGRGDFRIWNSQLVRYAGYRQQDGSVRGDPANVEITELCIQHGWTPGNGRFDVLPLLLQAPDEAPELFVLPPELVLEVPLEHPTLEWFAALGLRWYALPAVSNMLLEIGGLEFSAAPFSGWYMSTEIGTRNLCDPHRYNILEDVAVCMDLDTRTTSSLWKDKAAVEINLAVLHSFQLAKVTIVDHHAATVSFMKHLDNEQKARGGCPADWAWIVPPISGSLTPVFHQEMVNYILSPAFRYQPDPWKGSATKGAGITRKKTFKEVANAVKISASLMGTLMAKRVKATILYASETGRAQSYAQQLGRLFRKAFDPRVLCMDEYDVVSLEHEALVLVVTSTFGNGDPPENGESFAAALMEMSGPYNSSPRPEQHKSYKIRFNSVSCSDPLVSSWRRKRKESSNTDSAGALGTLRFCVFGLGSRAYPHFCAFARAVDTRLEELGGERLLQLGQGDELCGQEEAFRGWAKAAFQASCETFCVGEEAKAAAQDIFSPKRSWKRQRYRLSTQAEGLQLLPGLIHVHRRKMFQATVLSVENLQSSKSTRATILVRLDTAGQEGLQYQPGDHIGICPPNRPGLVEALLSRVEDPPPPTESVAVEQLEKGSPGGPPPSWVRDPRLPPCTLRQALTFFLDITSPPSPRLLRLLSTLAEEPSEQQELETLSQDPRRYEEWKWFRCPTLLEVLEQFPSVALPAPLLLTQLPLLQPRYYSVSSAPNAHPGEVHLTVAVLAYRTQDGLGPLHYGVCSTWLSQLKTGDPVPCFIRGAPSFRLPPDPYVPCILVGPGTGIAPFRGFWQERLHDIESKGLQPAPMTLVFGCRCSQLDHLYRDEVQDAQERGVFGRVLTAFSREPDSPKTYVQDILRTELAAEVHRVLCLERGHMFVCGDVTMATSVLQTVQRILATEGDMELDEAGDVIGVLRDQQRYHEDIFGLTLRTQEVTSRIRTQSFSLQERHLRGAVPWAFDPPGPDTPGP
The experiment in a line: Inhibition of bovine recombinant eNOS expressed in Escherichia coli assessed as nitric oxide production by hemoglobin capture assay.

Experiment [2] can be described thus: Selectivity of rat recombinant nNOS over mouse recombinant iNOS.
A short description of experiment [3]: Selectivity of rat recombinant nNOS over bovine recombinant eNOS.

Residues, ends and D or L forms follow the SMILES beside them.

Chain of Nitric oxide synthase 1 (P29476 whole entry): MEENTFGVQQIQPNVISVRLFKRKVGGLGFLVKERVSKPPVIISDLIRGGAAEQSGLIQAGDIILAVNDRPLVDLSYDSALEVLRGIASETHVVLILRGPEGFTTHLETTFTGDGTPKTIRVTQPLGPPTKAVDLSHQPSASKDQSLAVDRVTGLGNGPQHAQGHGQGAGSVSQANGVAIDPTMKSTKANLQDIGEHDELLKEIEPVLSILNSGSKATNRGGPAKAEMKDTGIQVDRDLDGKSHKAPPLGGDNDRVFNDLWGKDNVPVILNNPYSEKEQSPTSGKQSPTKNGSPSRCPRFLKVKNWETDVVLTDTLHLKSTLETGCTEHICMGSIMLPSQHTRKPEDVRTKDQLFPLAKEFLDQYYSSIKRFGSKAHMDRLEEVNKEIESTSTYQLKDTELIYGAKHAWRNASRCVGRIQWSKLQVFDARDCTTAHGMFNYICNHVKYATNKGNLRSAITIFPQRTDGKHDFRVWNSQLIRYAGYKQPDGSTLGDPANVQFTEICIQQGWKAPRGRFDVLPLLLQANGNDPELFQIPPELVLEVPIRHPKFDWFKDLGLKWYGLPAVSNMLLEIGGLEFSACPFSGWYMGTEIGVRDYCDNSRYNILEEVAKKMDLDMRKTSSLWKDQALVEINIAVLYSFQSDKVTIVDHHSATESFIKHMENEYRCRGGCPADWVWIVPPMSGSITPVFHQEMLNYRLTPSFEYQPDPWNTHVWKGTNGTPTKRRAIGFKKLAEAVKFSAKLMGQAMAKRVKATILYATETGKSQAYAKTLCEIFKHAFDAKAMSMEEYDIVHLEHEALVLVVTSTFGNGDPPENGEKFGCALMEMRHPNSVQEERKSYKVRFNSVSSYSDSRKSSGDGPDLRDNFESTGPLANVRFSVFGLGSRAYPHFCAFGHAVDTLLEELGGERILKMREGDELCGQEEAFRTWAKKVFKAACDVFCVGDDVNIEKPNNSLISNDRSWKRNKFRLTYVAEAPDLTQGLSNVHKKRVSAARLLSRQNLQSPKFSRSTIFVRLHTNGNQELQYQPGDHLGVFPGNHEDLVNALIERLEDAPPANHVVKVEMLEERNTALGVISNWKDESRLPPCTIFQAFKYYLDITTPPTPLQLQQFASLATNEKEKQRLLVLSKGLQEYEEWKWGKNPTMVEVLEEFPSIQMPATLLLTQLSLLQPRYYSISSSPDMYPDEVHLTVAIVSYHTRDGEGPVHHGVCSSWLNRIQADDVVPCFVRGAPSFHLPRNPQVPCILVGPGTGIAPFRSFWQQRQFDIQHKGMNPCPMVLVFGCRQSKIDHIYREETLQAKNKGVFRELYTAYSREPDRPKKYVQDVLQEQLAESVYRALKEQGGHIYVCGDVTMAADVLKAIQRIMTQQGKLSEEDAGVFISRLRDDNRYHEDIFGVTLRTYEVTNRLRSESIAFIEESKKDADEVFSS

With `N=C(NCCC[C@H](N)C(=O)N[C@H]1CCCNC1)N[N+](=O)[O-]`, the Ki came out at 7.62 µM at Nitric oxide synthase 1, 535 µM in experiment [1] and 221 µM on Nitric oxide synthase 3. The values for the Ratio Ki in experiment [2] and in experiment [3] were 70 and 29, respectively.

On to `CN[C@@H](CCCNC(=N)N[N+](=O)[O-])C(=O)N[C@H]1CN[C@H](C(N)=O)C1`, for which the Ki amounted to 1.09 µM on Nitric oxide synthase 1, 65 µM in experiment [1] and 290 µM on Nitric oxide synthase 3. Further, the results for the Ratio Ki in experiment [2] and in experiment [3] were 60 and 266, respectively.

Turning to `N=C(NCCC[C@H](N)C(=O)N[C@H]1CCNC1)N[N+](=O)[O-]`, the figures for the Ratio Ki in experiment [2] and in experiment [3] were 32 and 44, respectively.

For the molecule `CN[C@@H](CCCNC(=N)N[N+](=O)[O-])C(=O)N[C@@H]1CCNC1`, the values for the Ratio Ki in experiment [2] and in experiment [3] were 115 and 148, respectively.

On to `N=C(NCCC[C@H](N)C(=O)N[C@@H]1CCNC1)N[N+](=O)[O-]`, for which the Ratio Ki came to 250 in experiment [2] and 309 in experiment [3].

Take `CN[C@@H](CCCNC(=N)N[N+](=O)[O-])C(=O)N[C@@H]1CCCNC1`: the Ratio Ki in experiment [2] was 107; in experiment [3] it was 77.

In the case of `N=C(NCCC[C@H](N)C(=O)NC1CCNCC1)N[N+](=O)[O-]`, the Ki at Nitric oxide synthase 1 came to 0.47 µM; in experiment [1], 202 µM; at Nitric oxide synthase 3 it was 262 µM. The Ratio Ki in experiment [2] came out at 430; in experiment [3], 557.

For `CN[C@@H](CCCNC(N)=N[N+](=O)[O-])C(=O)NC1CCNCC1`, the figures for the Ki (at Nitric oxide synthase 1; in experiment [1]; at Nitric oxide synthase 3) were 2.38 µM, 515 µM and 114 µM, respectively.

Turning to `NC(=N[N+](=O)[O-])NCCC[C@H](N)C(=O)N[C@@H]1CCCNC1`, the results for the Ki (on Nitric oxide synthase 1; in experiment [1]; at Nitric oxide synthase 3) were 0.48 µM, 90 µM and 225 µM, respectively.

Regarding `NC(=O)[C@@H]1C[C@@H](NC(=O)[C@@H](N)CCC/N=C(\N)N[N+](=O)[O-])CN1`, the Ki on Nitric oxide synthase 1 amounted to 0.33 µM; in experiment [1], 17 µM.

Turning to `CN[C@@H](CCCNC(N)=N[N+](=O)[O-])C(=O)N[C@@H]1CCCNC1`, the Ki was 2.26 µM at Nitric oxide synthase 1, 242 µM in experiment [1] and 174 µM at Nitric oxide synthase 3.

For `C[C@H](NC(=O)[C@H](CC(N)=O)NC(=O)[C@@H](N)CC(N)=O)C(=O)O` (H-Asn-Asn-Ala-OH), the Ki on Nitric oxide synthase 1 stood at 0.61 µM; in experiment [1], 4.28 µM; at Nitric oxide synthase 3 it was 0.72 µM. For the same molecule, the Ratio Ki in experiment [2] worked out at 7; in experiment [3] it was 1.2.

As for `NC(=N[N+](=O)[O-])NCCC[C@H](N)C(=O)N[C@H]1CCNC1`, the Ki turned out to be 1.76 µM on Nitric oxide synthase 1, 57 µM in experiment [1] and 77 µM at Nitric oxide synthase 3.

For the molecule `NC(=N[N+](=O)[O-])NCCC[C@H](N)C(=O)N[C@@H]1CCNC1`, the results for the Ki (at Nitric oxide synthase 1; in experiment [1]; at Nitric oxide synthase 3) were 0.22 µM, 55 µM and 68 µM, respectively.

`CN[C@@H](CCCNC(=N)N[N+](=O)[O-])C(=O)NC1CCNCC1`: the values for the Ratio Ki in experiment [2] and in experiment [3] were 216 and 48, respectively.

Regarding `CN[C@@H](CCCNC(N)=N[N+](=O)[O-])C(=O)N[C@@H]1CCNC1`, the results for the Ki (on Nitric oxide synthase 1; in experiment [1]; on Nitric oxide synthase 3) were 1.08 µM, 124 µM and 160 µM, respectively.

Regarding `N=C(NCCC[C@H](N)C(=O)N[C@@H]1CCCNC1)N[N+](=O)[O-]`, the Ratio Ki in experiment [2] worked out at 188; in experiment [3], 469.
